The target in test [1] is T1, CD44 (Homo sapiens, UniProt P16070).
T1 construct: endogenous in cells; host or cells: SKOV3 cells
The test is described as follows: IM7 binding to SKOV3 cells, FACs analysis. It is filed as cell-based. The note with it: IM7 1 μg/ml, 4° C. The method, then:
In FIGS. 14a and 14b SKOV3 cells were incubated with the indicated concentrations of Å6 for 30 min at 4° C. IM7 (1 μg/ml) was then added and allowed to bind for 30 min at 4° C., after which the cells were washed and incubated with FITC-donkey anti-rat IgG for 30 min at 4° C. The cells were washed once and then subjected to FACs analysis.

Test [2] relates to FAK. The test is described as follows: FAK phosphorylation in SKOV3 cells, immunoblot and densitometry. The test is classed as cell-based. The method, then:
(§1) Cells were detached from their culture vessels by brief trypsinization, suspended in complete media and centrifuged at 250×g for 10 min at room temperature. The cell pellets were suspended in Dulbeco's phosphate buffered saline (DPBS) and re-centrifuged for a total of three washes. The cells were then re-suspended at 3.33E5/ml in 24 ml of either RPMI containing 0.5% BSA (Sigma Chem. Co. #A0336) (RPMI/BSA) or the conditioned media of growing NIH3T3 fibroblasts (10% FBS in DMEM) supplemented with 10 ng/ml vascular endothelial growth factor (VEGF) (CMN). The cells were then treated with or without 100 ug/ml soluble hyaluronic acid (HA; human umbilical, Calbiochem #385902) for 30 min at 37° C. under 5% CO2. Aliquots representing 2E6 cells were then plated into 10 cm culture dishes and A6 added to yield final concentrations of 0, 10, 100 and 1000 nM. The cells were cultured overnight (18 hr) at 37° C. under 5% CO2.
(§2) After 18 hr of treatment, the media were aspirated from the 10 cm dishes and saved. The plates were washed 3 times with 4 ml of ice-cold DPBS which were pooled with the reserved non-adherent cells. The non-adherent cells were centrifuged at 250×g for 10 min at 4° C., washed twice with cold DPBS, drained and lysed in 50 ul of cold RIPA buffer (ThermoScientific #89901) containing cocktails of broad spectrum phosphatase inhibitors (Calbiochem #524625; used at 2× final concentration) and protease inhibitors (Sigma #P8340) (RIPA/inh.). The 10 cm dishes were drained of remaining wash and the adherent cells lysed by scraping in 200 μL of cold RIPA/inh. For each test condition, the lysates of the non-adherent and adherent populations were combined, vortexed and then centrifuged at 14,000 rpm at 4° C. for 20 min. Aliquots of the cleared lysates were frozen at −80° C. immediately. A small aliquot was reserved for total protein analysis using a BCA Protein Assay Kit (Calbiochem #71285-3).
Samples representing 20 μg of total protein of each lysate were solubilized in the presence of 50 mM Tris pH 6.8, 10% glycerol, 2% SDS and 100 mM DTT for 5 min at 95° C. and then loaded onto 10-20% acrylamide gels (BioRad #345-0044, Tris-HCl, 1 mm, 26 well, 15 μL/well). Electrophoresis was performed using Laemli electrophoresis buffer (0.1% SDS, 25 mM Tris, 192 mM glycine) at 200 V, constant voltage, for one hour. Upon completion of electrophoresis, the proteins were transferred to Immun-Blot PVDF membranes (BioRad #162-0238) in ice-cold 20% methanol in 25 mM Tris, 192 mM glycine for 2 hr at 0.5 Amps, constant current/blotting apparatus. […]
The integrated densities (id) of the bands of interest were measured using Image J software (NIH). […]

In test [3] the test system is A2780 cells. Briefly: Boyden chamber chemotaxis of A2780 cells. It is filed as cell-based. The following applies: 10 ng/ml VEGF in NIH3T3-conditioned media, overnight. Here is the method:
A2780 (FIG. 10a) and SKOV3 (FIG. 10b) cells were incubated with the indicated concentrations of Å6 peptide for 30 min at 37° C. Aliquots representing 6,000 cells were placed on quadruplicate, CnI-coated filters (8 μm pores) in Boyden chambers and the cells allowed to migrate overnight in response to 10 ng/ml VEGF in NIH3T3-conditioned media containing the indicated concentrations of Å6. Upon completion of migration, the apical surfaces of the membranes were wiped clean and the migrating cells on the basal surface were stained with Geimsa stain and the cells present in representative fields of the membranes counted. Data represent the averages+/−standard deviations obtained from the replicate filters. […] This provides further confirmation that CD44 is the target for the Å6 peptide.

For test [4], the system named is B16 melanoma cells. Briefly: B16 melanoma lung metastasis model. The test is classed as in vivo, C57BL/6J mice. The note with it: melanoma cells injected in the tail vein. Here is the method:
The B16 melanoma metastasis is well known in the art. A typical protocol for assessing the inhibitory effect of a compound on metastasis is described below. Such a protocol was followed to assess the effect of Å6 on metastasis.
Briefly, B16 melanoma cells can be cultured in RPMI-1640 with 10% fetal bovine serum at 37° C. in an atmosphere of 95% air and 5% CO2. C57BL/6J mice of six to eight weeks can be purchased from commercial suppliers. For the lung metastasis model, about 1×10^5 melanoma cells suspended in 100 μl saline were injected in the tail vein in the presence or absence of Å6. Administration of the Å6 peptide inhibited the lung metastasis by 50% or more.

Test [5] relates to ERK 1/2. Briefly: ERK 1/2 phosphorylation (T202/Y204) in SKOV3 cells, immunoblot. It is filed as cell-based. The method, then: as §1, §2
Samples representing 20 μg of total protein of each lysate were solubilized in the presence of 50 mM Tris pH 6.8, 10% glycerol, 2% SDS and 100 mM DTT for 5 min at 95° C. and then loaded onto 10-20% acrylamide gels (BioRad #345-0044, Tris-HCl, 1 mm, 26 well, 15 μL/well). Electrophoresis was performed using Laemli electrophoresis buffer (0.1% SDS, 25 mM Tris, 192 mM glycine) at 200 V, constant voltage, for one hour. Upon completion of electrophoresis, the proteins were transferred to Immun-Blot PVDF membranes (BioRad #162-0238) in ice-cold 20% methanol in 25 mM Tris, 192 mM glycine for 2 hr at 0.5 Amps, constant current/blotting apparatus. The membranes were then cut vertically between molecular weight markers and in half at the 64 kDa marker to generate pieces for screening of higher molecular weight proteins (e.g., FAK) and lower molecular weight proteins (e.g., MEK and GAPDH). The blots were then blocked for a minimum of 4 hrs at room temperature in 3% bovine serum albumin (Sigma A0336) in 50 mM Tris, pH 7.4, 145 mM NaCl, 0.05% Tween-20 (TTBS) containing 0.05% sodium azide.
Upon completion of the primary antibody incubation, the blots were washed three times for 10 min in TTBS and then incubated with 1/25,000 dilutions of peroxidase-conjugated donkey anti-mouse IgG (Jackson ImmunoResearch #715-035-150) or peroxidase-conjugated donkey anti-rabbit IgG (Jackson ImmunoResearch #711-035-152) in TTBS containing 3% BSA for one hour at room temperature. […]

A value given as a limit tells only on which side of the number the result lay.

T1 sequence (P16070 21-742): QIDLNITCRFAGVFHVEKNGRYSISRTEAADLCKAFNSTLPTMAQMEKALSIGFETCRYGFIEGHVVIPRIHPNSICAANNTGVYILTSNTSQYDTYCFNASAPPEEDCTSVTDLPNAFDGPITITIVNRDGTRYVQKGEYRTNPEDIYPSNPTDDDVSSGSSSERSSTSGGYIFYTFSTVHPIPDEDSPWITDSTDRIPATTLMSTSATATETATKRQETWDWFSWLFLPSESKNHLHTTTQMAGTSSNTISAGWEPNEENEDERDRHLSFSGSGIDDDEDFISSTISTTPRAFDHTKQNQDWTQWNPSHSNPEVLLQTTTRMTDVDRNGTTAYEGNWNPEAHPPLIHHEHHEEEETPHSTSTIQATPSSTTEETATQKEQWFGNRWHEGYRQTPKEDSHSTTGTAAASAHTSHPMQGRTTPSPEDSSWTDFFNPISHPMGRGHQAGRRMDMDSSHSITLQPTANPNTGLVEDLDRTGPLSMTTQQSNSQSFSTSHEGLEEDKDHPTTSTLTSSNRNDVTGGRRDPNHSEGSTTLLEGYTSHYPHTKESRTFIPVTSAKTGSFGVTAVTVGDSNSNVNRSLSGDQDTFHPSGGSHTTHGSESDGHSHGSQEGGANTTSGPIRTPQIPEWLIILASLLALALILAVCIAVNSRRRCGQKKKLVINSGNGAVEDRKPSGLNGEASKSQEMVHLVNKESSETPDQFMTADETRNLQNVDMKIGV

For the substance “acetyl-Lys-Pro-Ser-Ser-Pro-Pro-Glu-Glu-NH2 (Ac-KPSSPPEE-NH2) [Å6]”, the “IM7 antibody binding to SKOV3 cells” value in test [1] is given as “increase in antibody binding with increasing concentration”. Also, the FAK phosphorylation result in test [2] (CM/V media) was “enhanced”. The “FAK phosphorylation in the presence of HA” value in test [2] (RPMI/BSA) is “restored”. For the same substance, in test [2] (SKOV3, all conditions, Y397, Y576/577, Y925), the pFAK/FAK ratios result was “enhanced pFAK/FAK ratios in a dose-dependent manner”. Further, in test [3], the “migration of A2780” value is listed as “essentially unaffected”. The “inhibition of lung metastasis” value in test [4] is given as not below 50%. In addition, the pERK/Erk entry is “appears to have increased” in test [5] (CM/V), “decreased” in test [5] (CM/V with HA present) and “increased pERK/Erk in a dose dependent manner” in test [5] (basal media (RPMI/BSA)). For the same substance, the “pErk/Erk response to HA” value in test [5] (basal media with HA) is “decreased this response to HA”.

These data come from patent US8697629B2, “Modulation of intracellular signaling” (Angstrom Pharmaceuticals, Inc., priority 2010, dated 2014).
